{"source": "ChEMBL document CHEMBL1158869", "about": "“Bioactive iridoids and a new lignan from Allamanda cathartica and Himatanthus fallax from the Suriname rainforest” (J Nat Prod, 1997)", "key": {"Saccharomyces cerevisiae": {"system": "Saccharomyces cerevisiae", "experiment": "Antimicrobial activity against yeast Sc7", "type": "functional"}, "M109": {"system": "M109", "experiment": "Cytotoxicity against mouse M109 cells", "type": "functional, cell-based"}}}
{"smiles": "C/C=C1\\C(=O)O[C@]23C=C[C@@H]4C(C(=O)OC)=CO[C@H](O[C@@H]12)[C@@H]43", "note": "[ISOPLUMERICIN]", "values": [{"measurement": "IC12", "setting": "Saccharomyces cerevisiae", "result": 42, "unit": "µg/mL"}, {"measurement": "IC50", "setting": "M109", "result": 25, "unit": "µg/mL"}]}
{"smiles": "C/C=C1/C(=O)O[C@]23C=C[C@@H]4C(C(=O)OC)=CO[C@H](O[C@@H]12)[C@@H]43", "note": "[PLUMERICIN]", "values": [{"measurement": "IC12", "setting": "Saccharomyces cerevisiae", "result": 74, "unit": "µg/mL"}, {"measurement": "IC50", "setting": "M109", "result": 100, "unit": "µg/mL"}]}
